Laboratory results: patent US20250084087A1, “BICYCLIC HETEROCYCLES AS MRGPRX2 ANTAGONISTS” (Incyte Corporation, priority 2023, published 2025)

These compounds were tested against T1, MRGPRX2 (Homo sapiens, UniProt Q96LB1) (assay: MRGPRX2 IP1 HTRF assay). Conditions: CHO-K1 cells stably expressing human MRGPRX2; IP1 accumulation; agonist Cortistatin 14 1 μM.
T1 sequence (Q96LB1 1-330): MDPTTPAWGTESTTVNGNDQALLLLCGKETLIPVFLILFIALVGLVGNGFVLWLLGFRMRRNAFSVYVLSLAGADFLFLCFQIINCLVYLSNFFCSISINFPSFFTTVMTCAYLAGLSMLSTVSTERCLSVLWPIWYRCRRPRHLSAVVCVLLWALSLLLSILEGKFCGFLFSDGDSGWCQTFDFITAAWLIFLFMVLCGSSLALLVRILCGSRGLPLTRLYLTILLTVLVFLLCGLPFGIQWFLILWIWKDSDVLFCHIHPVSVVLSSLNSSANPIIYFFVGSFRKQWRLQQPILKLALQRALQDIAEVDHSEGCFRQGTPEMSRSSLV
Assay type: cell-based
Design: host or cells: CHO-K1
Text: Example B: MRGPRX2 IP1 HTRF Assay
This assay measures compound inhibition of myo-Inositol 1 phosphate (IP1) accumulation in CHO-K1 cells. Chinese hamster ovary (CHO-K1) cells stably expressing human MRGPRX2 were purchased from GenScript (Piscataway, NJ).
For the HTRF IP1 determination, an IP-One GqKit (Perkin Elmer Cisbio, Waltham, MA), which includes all reagents and buffers in this protocol, was used. The cells were maintained in culture medium (Ham's F-12K) containing 10% (v/v) FBS, and 200 μg/mL Zeocin. For the assay, the cells were harvested and resuspended in culture medium with 2% FBS and without Zeocin, then were passed through a 40 μm filter. Cells were added at 20000 cells in a 5 μL/well to a 384-well white small volume cell culture plate (Greiner VWR, Radnor, PA) which contained 50 nL/well of test compound serially diluted at a selected concentration range in DMSO. 5 μL/well of prepared 2× Stimulation Buffer2 was then added to plates and was incubated at 37° C. with 5% CO2 for 1 h. 5 μL/well of agonist Cortistatin 14 (Bio-TechneR&D Systems, Minneapolis, MN) in 1× Stimulation Buffer2, for a 1 μM final concentration, was then added to plates and incubated at 37° C. with 5% CO2 for 1 h. 6 μL/well of 1:20 diluted Detection Reagent Mix (d2 and Cryptate) was added to the plates and incubated for 1 h in the dark. Plates were read on the PHERAstar microplate reader (BMG Labtech Cary, NC) to determine the HTRF ratio of the acceptor and donor emission signals. The IP1 concentrations were calculated from a standard curve following the IP-One GQ kit instructions. Wells with DMSO only and wells with high concentration of reference antagonist were used as controls for normalization. Compound IC50 curves were globally fitted with 3- or 4-parameter Hill equation in a Genedata Screener (Genedata Basel, Switzerland).

Row | IC50 | Compound
1 | 100 to 1000 nM | NC(=O)N1CCC(CNc2cc(Cl)nc3nc(C(F)(F)F)cn23)(c2ccccc2)CC1 [Example 1, 4-(((7-Chloro-2-(trifluoromethyl)imidazo[1,2-a]pyrimidin-5-yl)amino)methyl)-4-phenylpiperidine-1-carboxamide]
2 | 100 to 1000 nM | NC(=O)N1CCC(CNc2nccc3nc(C(F)(F)F)cn23)(c2ccccc2)CC1 [Example 2, 4-Phenyl-4-(((2-(trifluoromethyl)imidazo[1,2-c]pyrimidin-5-yl)amino)methyl)piperidine-1-carboxamide]
3 | 0.1 to 100 nM | CNC(=O)N1CC(CNc2cc(Cl)cc3nc(C(F)(F)F)cn23)(c2ccc(F)cn2)C1 [Example 25, 3-(((7-Chloro-2-(trifluoromethyl)imidazo[1,2-a]pyridin-5-yl)amino)methyl)-3-(5-fluoropyridin-2-yl)-N-methylazetidine-1-carboxamide]
4 | 0.1 to 100 nM | CNC(=O)N1CC(CNc2cc(C(F)(F)F)nc3cc(C(F)(F)F)nn23)(n2cc(F)cn2)C1 [Example 41, 3-(((2,5-Bis(trifluoromethyl)pyrazolo[1,5-a]pyrimidin-7-yl)amino)methyl)-3-(4-fluoro-1H-pyrazol-1-yl)-N-methylazetidine-1-carboxamide]
5 | 0.1 to 100 nM | Nc1nc(N2CCC(CNc3cc(C(F)F)nc4cc(C(F)(F)F)nn34)(c3ccccc3)CC2)n[nH]1 [Example 42, N-((1-(5-Amino-1H-1,2,4-triazol-3-yl)-4-phenylpiperidin-4-yl)methyl)-5-(difluoromethyl)-2-(trifluoromethyl)pyrazolo[1,5-a]pyrimidin-7-amine]
6 | 0.1 to 100 nM | C[C@]1(O)C[C@@H](NC(=O)N2CC(CNc3cc(C(F)(F)F)nc4cc(C(F)(F)F)nn34)(c3ccc(F)cc3)C2)C1 [Example 52, 3-(((2,5-Bis(trifluoromethyl)pyrazolo[1,5-a]pyrimidin-7-yl)amino)methyl)-3-(4-fluorophenyl)-N-((1s,3s)-3-hydroxy-3-methylcyclobutyl)azetidine-1-carboxamide]

These compounds were tested against T1, MRGPRX2 (assay: MRGPRX2 β-Arrestin recruitment assay (PathHunter)). Conditions: PathHunter CHO-K1 MRGPRX2 β-Arrestin cell line; agonist Cortistatin 14 0.25 μM.
Assay type: cell-based
Design: host or cells: CHO-K1 (PathHunter)
Text: Example C: MRGPRX2 P-Arrestin Assay
This assay measures compound inhibition of P-Arrestin recruitment, which is part of the G protein-independent pathway that results from the ligand-activated GPCR phosphorylation by specific GPCR kinases. The PathHunter CHO-K1 MRPGRX2 B-Arrestin Cell line stably expressing ProLink tagged MRGPRX2 and Enzyme Acceptor Tagged B-Arrestin was purchased from Eurofins DiscoverX, (Fremont, CA).
The cells were maintained in culture medium from the Europhins DiscoverX Cell Culture Kit-107 which includes FBS, hygromycin B and G418. For the assay, the cells were harvested and were resuspended with Cell Plating Reagent 2 (Eurofins DiscoverX). Cells were added 10000 cells in 25 μL/well to a 384-well black cell culture plate (Greiner VWR, Radnor, PA) which contained 125 nL/well of compound at a selected serially diluted concentration range or DMSO. The plate was incubated at 37° C. with 5% CO2 for 1 h. 2 μL/well of agonist Cortistatin 14 was diluted in Protein Dilution Buffer, (Eurofins DiscoverX) for a final concentration of 0.25 μM, was added and the plate was incubated at 37° C. with 5% CO2 for 90 min. 14 μL/well of Detection Reagent Mix (PathHunter Detection Kit, Eurofins DiscoverX) was added to the plates and further incubated for 1 h in the dark. Plates were read on the PHERAstar microplate reader (BMG Labtech Cary, NC) measuring luminescence 0.1 to 1 second per well. Data was normalized using DMSO only wells and wells with high concentration of reference antagonist as controls. Compound IC50 curves were globally fitted with 3- or 4-parameter Hill equation in a Genedata Screener (Genedata Basel, Switzerland).

Row | IC50 | Compound
7 | 0.1 to 100 nM | OC1CCC(CNc2cc(C(F)(F)F)nc3cc(Br)nn23)(c2ccncc2)C1 (racemic) [Example 86, 3-(((2-Bromo-5-(trifluoromethyl)pyrazolo[1,5-a]pyrimidin-7-yl)amino)methyl)-3-(pyridin-4-yl)cyclopentan-1-ol]
8 | > 1000 nM | OCC1CC1(CNc1cc(C(F)(F)F)nc2cc(Br)nn12)c1ccccn1 (single isomer, unassigned) [Example 88, (2-(((2-Bromo-5-(trifluoromethyl)pyrazolo[1,5-a]pyrimidin-7-yl)amino)methyl)-2-(pyridin-2-yl)cyclopropyl)methanol]
9 | 100 to 1000 nM | OCC1CC1(CNc1cc(C(F)(F)F)nc2cc(Br)nn12)c1ccccc1 (single isomer, unassigned) [Example 89, (2-(((2-Bromo-5-(trifluoromethyl)pyrazolo[1,5-a]pyrimidin-7-yl)amino)methyl)-2-phenylcyclopropyl)methanol]
10 | 0.1 to 100 nM | CNC(=O)N1CC(CNc2cc(Cl)cc3nc(C(F)(F)F)cn23)(c2ccc(F)cn2)C1 [Example 25, 3-(((7-Chloro-2-(trifluoromethyl)imidazo[1,2-a]pyridin-5-yl)amino)methyl)-3-(5-fluoropyridin-2-yl)-N-methylazetidine-1-carboxamide]
11 | 0.1 to 100 nM | CNC(=O)N1CC(CNc2cc(C(F)(F)F)nc3cc(C(F)(F)F)nn23)(n2cc(F)cn2)C1 [Example 41, 3-(((2,5-Bis(trifluoromethyl)pyrazolo[1,5-a]pyrimidin-7-yl)amino)methyl)-3-(4-fluoro-1H-pyrazol-1-yl)-N-methylazetidine-1-carboxamide]
12 | 0.1 to 100 nM | Nc1nc(N2CCC(CNc3cc(C(F)F)nc4cc(C(F)(F)F)nn34)(c3ccccc3)CC2)n[nH]1 [Example 42, N-((1-(5-Amino-1H-1,2,4-triazol-3-yl)-4-phenylpiperidin-4-yl)methyl)-5-(difluoromethyl)-2-(trifluoromethyl)pyrazolo[1,5-a]pyrimidin-7-amine]
13 | 0.1 to 100 nM | O=c1cc(N2CC(CNc3cc(C(F)(F)F)nc4cc(C(F)(F)F)nn34)(c3ccc(F)cc3)C2)ccn1C1CC1 [Example 51, 4-(3-(((2,5-Bis(trifluoromethyl)pyrazolo[1,5-a]pyrimidin-7-yl)amino)methyl)-3-(4-fluorophenyl)azetidin-1-yl)-1-cyclopropylpyridin-2(1H)-one]
14 | 0.1 to 100 nM | C[C@]1(O)C[C@@H](NC(=O)N2CC(CNc3cc(C(F)(F)F)nc4cc(C(F)(F)F)nn34)(c3ccc(F)cc3)C2)C1 [Example 52, 3-(((2,5-Bis(trifluoromethyl)pyrazolo[1,5-a]pyrimidin-7-yl)amino)methyl)-3-(4-fluorophenyl)-N-((1s,3s)-3-hydroxy-3-methylcyclobutyl)azetidine-1-carboxamide]
15 | 0.1 to 100 nM | N#CC12CC(NC(=O)N3CC(CNc4cc(C(F)(F)F)nc5cc(C(F)(F)F)nn45)(c4ccc(F)cn4)C3)(C1)C2 [Example 64, 3-(((2,5-Bis(trifluoromethyl)pyrazolo[1,5-a]pyrimidin-7-yl)amino)methyl)-N-(3-cyanobicyclo[1.1.1]pentan-1-yl)-3-(5-fluoropyridin-2-yl)azetidine-1-carboxamide]
16 | 0.1 to 100 nM | [2H]C([2H])([2H])c1cc(NCC2(c3ccc(F)cc3)CN(C(N)=O)C2)n2nc(C(F)(F)F)cc2n1 [Example 70, 3-(4-Fluorophenyl)-3-(((5-(methyl-d3)-2-(trifluoromethyl)pyrazolo[1,5-a]pyrimidin-7-yl)amino)methyl)azetidine-1-carboxamide]
17 | 0.1 to 100 nM | CCc1cc(NCC2(c3ccc(F)cc3)CCC(N)(C#N)CC2)n2nc(C(F)(F)F)cc2n1 (stereo not shown) [Example 72, 1-Amino-4-(((5-ethyl-2-(trifluoromethyl)pyrazolo[1,5-a]pyrimidin-7-yl)amino)methyl)-4-(4-fluorophenyl)cyclohexane-1-carbonitrile]
18 | 0.1 to 100 nM | CO[C@H]1C[C@](CNc2cc(C(F)(F)F)nc3cc(C(F)(F)F)nn23)(c2ccccc2)C1 [Example 75, N-(((1s,3s)-3-Methoxy-1-phenylcyclobutyl)methyl)-2,5-bis(trifluoromethyl)pyrazolo[1,5-a]pyrimidin-7-amine]
19 | 0.1 to 100 nM | NC(=O)C1(N)CC(CNc2cc(C(F)(F)F)nc3cc(C(F)(F)F)nn23)(c2ccc(F)cc2)C1 (stereo not shown) [Example 76, 1-Amino-3-(((2,5-bis(trifluoromethyl)pyrazolo[1,5-a]pyrimidin-7-yl)amino)methyl)-3-(4-fluorophenyl)cyclobutane-1-carboxamide]
20 | 0.1 to 100 nM | NC(=O)N1CC(CNc2cc(Cl)cc3nc(C(F)(F)F)nn23)(c2ccccc2)C1 [Example 79, 3-(((7-Chloro-2-(trifluoromethyl)-[1,2,4]triazolo[1,5-a]pyridin-5-yl)amino)methyl)-3-phenylazetidine-1-carboxamide]
21 | 0.1 to 100 nM | OC1CC(CNc2cc(C(F)(F)F)nc3nc(C(F)(F)F)cn23)(c2ccc(F)cc2)C1 (stereo not shown) [Example 80, 3-(((2,7-Bis(trifluoromethyl)imidazo[1,2-a]pyrimidin-5-yl)amino)methyl)-3-(4-fluorophenyl)cyclobutan-1-ol]
22 | 0.1 to 100 nM | CNC1CCC(CNc2cc(C(F)(F)F)nc3cc(Br)nn23)(c2cccnc2)C1 (stereo not shown) [Example 87, 2-Bromo-N-((3-(methylamino)-1-(pyridin-3-yl)cyclopentyl)methyl)-5-(trifluoromethyl)pyrazolo[1,5-a]pyrimidin-7-amine]
23 | 100 to 1000 nM | Cc1ccc(C2(CNc3cc(C(F)(F)F)nc4cc(C(F)(F)F)nn34)CN(S(N)(=O)=O)C2)cn1 [Example 97, 3-(((2,5-Bis(trifluoromethyl)pyrazolo[1,5-a]pyrimidin-7-yl)amino)methyl)-3-(6-methylpyridin-3-yl)azetidine-1-sulfonamide]
24 | > 1000 nM | [2H]C([2H])([2H])NC(=O)N1CC(CNc2cc(C3CC3)nc3cc(C(F)(F)F)nn23)(c2ccc(C(=O)N(C)C)cc2)C1 [Example 107, 3-(((5-Cyclopropyl-2-(trifluoromethyl)pyrazolo[1,5-a]pyrimidin-7-yl)amino)methyl)-3-(4-(dimethylcarbamoyl)phenyl)-N-(methyl-d3)azetidine-1-carboxamide]
25 | 100 to 1000 nM | [2H]C([2H])([2H])NC(=O)N1CC(CNc2cc(C3CCC3)nc3cc(C(F)(F)F)nn23)(c2ccc(F)cc2)C1 [Example 108, 3-(((5-Cyclobutyl-2-(trifluoromethyl)pyrazolo[1,5-a]pyrimidin-7-yl)amino)methyl)-3-(4-fluorophenyl)-N-(methyl-d3)azetidine-1-carboxamide]
